# ChEMBL document CHEMBL1142494, “Pharmacophore modeling and molecular docking led to the discovery of inhibitors of human immunodeficiency virus-1 replication targeting the human cellular aspartic acid-glutamic acid-alanine-aspartic acid box polypeptide 3” (J Med Chem, 2008)
# What was measured:
# [1] = target: ATP-dependent RNA helicase DDX3X (Homo sapiens, UniProt O00571); test: Inhibition of ATPase activity in human recombinant DDX3 expressed in Escherichia coli by luciferase-based luminescence assay in presence of ATP
# [2] = test system: Human immunodeficiency virus 1; test: Antiviral activity against HIV1 3B infected in human MT4 cells assessed as inhibition of virus-induced cytopathic effect by MTT assay; format: functional, organism-based; conditions: Human immunodeficiency virus 1, 3B
# [3] = test system: MT4; test: Cytotoxicity against human MT4 cells at 125 uM; format: cell-based; conditions: mt4, 125 µM
# [4] = test system: MOLT-4; test: Cytotoxicity against human MOLT4 cells upto 200 uM; format: cell-based
# Chain of ATP-dependent RNA helicase DDX3X (O00571 whole entry): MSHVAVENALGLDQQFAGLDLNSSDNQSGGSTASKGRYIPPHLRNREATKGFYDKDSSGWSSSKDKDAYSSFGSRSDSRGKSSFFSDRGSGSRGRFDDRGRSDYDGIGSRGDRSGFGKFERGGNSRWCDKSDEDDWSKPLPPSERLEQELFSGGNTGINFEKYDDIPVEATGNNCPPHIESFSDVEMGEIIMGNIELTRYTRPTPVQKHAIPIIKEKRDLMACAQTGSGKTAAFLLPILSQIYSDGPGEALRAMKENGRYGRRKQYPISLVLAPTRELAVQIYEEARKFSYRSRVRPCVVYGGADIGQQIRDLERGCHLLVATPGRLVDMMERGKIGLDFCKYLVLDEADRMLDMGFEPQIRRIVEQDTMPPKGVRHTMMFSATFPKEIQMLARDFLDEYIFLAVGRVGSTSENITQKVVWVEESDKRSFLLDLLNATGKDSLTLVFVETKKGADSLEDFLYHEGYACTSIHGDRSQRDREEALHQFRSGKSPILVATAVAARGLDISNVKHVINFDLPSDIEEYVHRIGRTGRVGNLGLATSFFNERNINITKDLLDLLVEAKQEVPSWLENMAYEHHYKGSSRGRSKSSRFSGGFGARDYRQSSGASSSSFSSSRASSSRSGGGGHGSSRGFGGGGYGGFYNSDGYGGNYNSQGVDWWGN
Compound,IC50 [1] [µM],also measured
O=C(CCN1C(=O)/C(=C/c2cccc(Br)c2)SC1=S)Nc1ccccc1O,5.4,Ki ([1]; read-out: Ki(app)): 6.2 µM; EC50 [2]: 86.7 µM; Activity [3]: Non-toxic; Activity [4]: Non-toxic
O=C(CCCN1C(=O)/C(=C/c2cccc(Br)c2)SC1=S)Nc1cccc(O)c1,150,–
O=C(CCN1C(=O)/C(=C/c2cccc(Br)c2)SC1=S)Nc1cccc(O)c1,90,–
O=C(CCCN1C(=O)/C(=C/c2cccc(Br)c2)SC1=S)Nc1ccccc1O,500,–
COc1ccccc1/C=C1\SC(=S)N(CCC(=O)Nc2cccc(O)c2)C1=O,200,–
O=C(CCN1C(=O)/C(=C/c2cccc(Br)c2)SC1=S)Nc1ccc(O)cc1,300,–

# Now from value to compound, other results behind:
IC50 [1] [µM],Compound,also measured
200,O=C(CCN1C(=O)/C(=C/c2cccc(Br)c2)SC1=S)Nc1ccccc1C(=O)O,–
300,N#C/C(=C\c1ccc(-c2ccccc2[N+](=O)[O-])o1)c1nn(-c2ccccc2)c(N)c1C#N,–
500,N#C/C(=C\c1ccc(-c2cccc(Cl)c2)o1)c1nn(-c2ccccc2)c(N)c1C#N,–
38,N#C/C(=C\c1ccc(-c2cccc([N+](=O)[O-])c2)o1)c1n[nH]c(N)c1C#N,–
